Measured values taken from patent US8350048B2, “Amide compounds as boosters of antivirals” (Janssen R&D Ireland, priority 2007, dated 2013).
Read-outs that look alike come from different tables or passages of the source.

Tests used:
[1] = molecular target: T1, CYP2C19 (Homo sapiens, UniProt P33261); assay: in vitro; details: E. coli expressed CYP2C19, pH 7.4, probe CEC 25 μM
Protocol: (§6) Inhibition of the metabolism of test compounds by different CYP P450 isoenzymes was determined using E. coli expressed proteins (3A4, 2C9, 2D6, 1A2, and 2C19) that convert their specific substrates into a fluorescent molecule (Table 6). This fluorescent molecule was measured using a fluorescent plate reader (Victor2 (Wallac) or Fluoroskan (Labsystems)). […] CYP P450 enzymes were prepared in house or commercially bought and stored at −80° C.
(§7) The assay was performed in black 96 well Costar plates. Test compounds were added to a CYP P450 enzyme solution in the presence of an NADPH generating system. After 5 min of preincubation at 37° C., the freshly prepared, phosphate buffered (pH 7.4) substrate solution was added. Known CYP P450 inhibitors were used as positive controls, negative controls were run without CYP P450 enzyme. […] Reaction mixtures were incubated at 37° C. for 30 min (CYP3A4-BFC), 30 min (CYP3A4-BQ), 10 min (CYP3A4-DBF), 15 min (CYP1A2-CEC), 30 min (CYP2C9-MFC, CYP2C19-CEC), or 45 min (CYP2D6-AMMC), respectively. Then, the reaction was stopped by the addition of 200 μl acetonitrile, and the fluorescent signal was detected.
(§8) Calculation of CYP P450 isoenzyme inhibition (% inh.):
(§9) % activity=(100/(average positive control−average negative control))×(average sample−average negative control)

[2] = Metabolic stability of test compounds (HLM15'); type: in vitro ADME, human; details: human liver microsomes 1 mg/ml, 5 μM test compound, 15 min; for recovery at 15 min, 5 μM: pH 7.4, read-out: Metabolic stability (HLM, % recovery after 15')
Source text: Human liver tissue is rinsed in ice-cold 0.1 M Tris-HCl (pH 7.4) buffer to wash excess blood. Tissue is then blotted dry, weighed and chopped coarsely using surgical scissors. The tissue pieces are homogenized in 3 volumes of ice-cold 0.1 M phosphate buffer (pH 7.4) using either a Potter-S (Braun, Italy) equipped with a Teflon pestle or a Sorvall Omni-Mix homogenizer, for 7×10 sec. In both cases, the vessel is kept in/on ice during the homogenization process. Tissue homogenates are centrifuged at 9000×g for 20 min at 4° C. using a Sorvall centrifuge or Beckman Ultracentrifuge. The resulting supernatant can be stored at −80° C. and is designated ‘S9’. The S9 fraction is centrifuged at 100,000×g for 60 min at 4° C. using a Beckman ultracentrifuge. The resulting supernatant is carefully aspirated, aliquoted and designated ‘cytosol’. The pellet is re-suspended in 0.1 M phosphate buffer (pH 7.4) in a final volume of 1 ml per 0.5 g original tissue weight and designated ‘microsomes’. All sub-cellular fractions are aliquoted, immediately frozen in liquid nitrogen and stored at −80° C. until use.
Heat-inactivated (10 min at 95° C.) ‘S9’ or microsomes were used for blank experiments. […] The reaction was incubated for 0 or 15 min. Next, the reaction was stopped by addition of 2 volumes of DMSO (or acetonitrile). Samples were centrifuged (10 min, 900×g) and analyzed by LC-MS.

[3] = system: wild-type HIV-1IIIB strain; assay: Antiviral activity, MT4 LTR-EGFP cellular assay; type: cell-based; parameters: key to Antiviral activity IIIB (pEC50): pEC50 = -log10(EC50); details: for EC50: read-out: Antiviral activity IIIB (pEC50) (converted)
Protocol: (§1) Assay 1 &2: Antiviral Activity/Toxicity
The compounds of the present invention were tested for antiviral activity in a cellular assay, which was performed according to the following procedure.
The human T-cell line MT4 is engineered with Green Fluorescent Protein (GFP) and an HIV-specific promoter, HIV-1 long terminal repeat (LTR). This cell line is designated MT4 LTR-EGFP, and can be used for the in vitro evaluation of anti-HIV activity of investigational compounds. In HIV-1 infected cells, the Tat protein is produced which upregulates the LTR promotor and finally leads to stimulation of the GFP reporter production, allowing measuring ongoing HIV-infection fluorometrically.
(§2) The ratio of CC50 to EC50 is defined as the selectivity index (SI) and is an indication of the selectivity of the anti-HIV activity of the inhibitor. The ultimate monitoring of HIV-1 infection and cytotoxicity is done using a scanning microscope. Image analysis allows very sensitive detection of viral infection. Measurements are done before cell necrosis, which usually takes place about five days after infection, in particular measurements are performed three days after infection.
(§3) A pEC50 value corresponds to −log10(EC50). A pCC50 value corresponds to −log10(CC50).

[4] = Toxicity, mock-infected MT4 CMV-EGFP cells; type: cell-based, human; details: human; for CC50 at 3 days: mock-infected MT4 CMV-EGFP cells, read-out: Toxicity MT4 (pCC50) (converted)
Source text: as §1
(§4) Analogously, MT4 cells are engineered with GFP and the constitutional cytomegalovirus (CMV) promotor. […] Cytotoxic investigational compounds reduce GFP levels of mock-infected MT4 CMV-EGFP cells.
as §2, §3

[5] = molecular target: CYP2D6 (Homo sapiens, UniProt P10635); assay: in vitro; details: pH 7.4
Protocol: as §6, §7, §8, §9

[6] = molecular target: T2, CYP1A2 (Homo sapiens, UniProt P05177); assay: in vitro; details: E. coli expressed CYP1A2, pH 7.4, probe CEC 5 μM
T2 sequence (P05177 1-516): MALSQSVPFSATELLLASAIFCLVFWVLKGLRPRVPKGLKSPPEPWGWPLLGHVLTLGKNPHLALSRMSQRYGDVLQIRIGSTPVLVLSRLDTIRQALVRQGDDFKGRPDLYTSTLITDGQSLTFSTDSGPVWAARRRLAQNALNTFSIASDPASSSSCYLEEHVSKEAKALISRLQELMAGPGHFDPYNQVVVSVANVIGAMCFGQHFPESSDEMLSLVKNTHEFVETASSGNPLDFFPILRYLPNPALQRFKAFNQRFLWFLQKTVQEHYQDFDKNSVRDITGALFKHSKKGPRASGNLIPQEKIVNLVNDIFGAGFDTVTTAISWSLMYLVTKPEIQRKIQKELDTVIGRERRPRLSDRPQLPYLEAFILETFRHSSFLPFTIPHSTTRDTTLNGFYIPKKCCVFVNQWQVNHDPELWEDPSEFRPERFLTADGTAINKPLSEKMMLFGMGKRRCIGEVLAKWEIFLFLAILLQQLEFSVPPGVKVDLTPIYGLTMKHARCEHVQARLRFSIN
Protocol: as §6, §7, §8, §9

[7] = molecular target: CYP2C9 (Homo sapiens, UniProt P11712); assay: in vitro; details: for inhibition at 30 min, 10 μM: human, pH 7.4
Source text: (§5) Assay 4: CYP450 Inhibition

[8] = molecular target: T3, CYP3A4 (Homo sapiens, UniProt P08684); assay: CYP450 inhibition CDNA-CYP3A4-BFC; details: for Cyp450 inhibition: CDNA-CYP3A4-BFC (% inhibition): 10 μM test compound, substrate BFC 150 μM, 30 min
Source text: as §5

[9] = system: MT4 CMV-EGFP cells; assay: Toxicity, mock-infected MT4 CMV-EGFP cells; type: cell-based, human
Source text: as §1, §4, §2, §3

[10] = molecular target: T1, CYP2C19; assay: CYP450 inhibition CDNA-CYP2C19-CEC; details: 10 μM test compound, substrate CEC 25 μM, 30 min
Protocol: as §6, §7, §8, §9

[11] = molecular target: T3, CYP3A4; assay: CYP450 inhibition CDNA-CYP3A4-BQ; details: for Cyp450 inhibition: CDNA-CYP3A4-BQ (% inhibition): 10 μM test compound, substrate BQ 60 μM, 30 min
Source text: as §5

[12] = molecular target: T3, CYP3A4; assay: in vitro; details: human, pH 7.4
Source text: as §5

[13] = Human immunodeficiency virus 1, 72 h, wild-type HIV-1 IIIB, MT4 LTR-EGFP cells, three days after infection
[14] = wild-type HIV-1 IIIB, MT4 LTR-EGFP cells, three days after infection

CYP2C9, sequence (P11712 whole entry): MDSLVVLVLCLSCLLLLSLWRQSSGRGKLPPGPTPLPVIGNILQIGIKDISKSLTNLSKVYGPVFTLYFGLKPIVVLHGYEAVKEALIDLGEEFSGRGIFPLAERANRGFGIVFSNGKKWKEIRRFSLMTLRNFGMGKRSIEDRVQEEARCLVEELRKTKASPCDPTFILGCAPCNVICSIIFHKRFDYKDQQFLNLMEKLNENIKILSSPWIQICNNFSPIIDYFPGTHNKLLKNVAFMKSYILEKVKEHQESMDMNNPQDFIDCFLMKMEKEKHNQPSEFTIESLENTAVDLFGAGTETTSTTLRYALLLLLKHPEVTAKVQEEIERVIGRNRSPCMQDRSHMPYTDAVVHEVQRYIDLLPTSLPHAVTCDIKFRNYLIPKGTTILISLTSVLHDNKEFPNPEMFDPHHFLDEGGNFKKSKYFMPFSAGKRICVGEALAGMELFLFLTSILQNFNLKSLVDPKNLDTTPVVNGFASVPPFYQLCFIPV
T1 sequence (P33261 whole entry): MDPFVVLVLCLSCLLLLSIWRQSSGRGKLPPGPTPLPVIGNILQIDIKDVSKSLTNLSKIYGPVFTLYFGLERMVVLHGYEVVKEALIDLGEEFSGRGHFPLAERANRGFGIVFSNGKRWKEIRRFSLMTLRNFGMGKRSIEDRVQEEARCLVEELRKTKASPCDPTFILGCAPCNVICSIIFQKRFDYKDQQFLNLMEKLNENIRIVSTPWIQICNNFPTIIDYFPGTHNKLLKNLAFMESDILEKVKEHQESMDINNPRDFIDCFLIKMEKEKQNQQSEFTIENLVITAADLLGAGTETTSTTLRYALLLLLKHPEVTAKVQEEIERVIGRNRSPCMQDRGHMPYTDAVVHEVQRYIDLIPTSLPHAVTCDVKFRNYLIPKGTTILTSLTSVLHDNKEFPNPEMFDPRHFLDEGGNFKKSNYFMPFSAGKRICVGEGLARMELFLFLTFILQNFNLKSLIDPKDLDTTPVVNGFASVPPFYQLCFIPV
T3 sequence (P08684 whole entry): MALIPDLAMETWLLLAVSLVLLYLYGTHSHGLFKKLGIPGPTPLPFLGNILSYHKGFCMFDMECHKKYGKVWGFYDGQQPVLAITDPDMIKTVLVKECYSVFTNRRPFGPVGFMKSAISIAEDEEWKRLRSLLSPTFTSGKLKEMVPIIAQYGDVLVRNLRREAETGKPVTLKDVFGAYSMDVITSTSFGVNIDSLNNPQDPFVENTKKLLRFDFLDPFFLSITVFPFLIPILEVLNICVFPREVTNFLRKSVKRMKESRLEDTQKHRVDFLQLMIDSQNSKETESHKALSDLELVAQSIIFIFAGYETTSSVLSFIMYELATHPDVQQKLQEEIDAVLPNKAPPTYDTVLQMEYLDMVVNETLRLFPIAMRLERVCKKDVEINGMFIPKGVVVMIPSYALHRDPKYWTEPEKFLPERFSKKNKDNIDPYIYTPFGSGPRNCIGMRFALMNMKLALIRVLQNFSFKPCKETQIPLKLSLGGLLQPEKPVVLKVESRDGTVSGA
CYP2D6, sequence (P10635 whole entry): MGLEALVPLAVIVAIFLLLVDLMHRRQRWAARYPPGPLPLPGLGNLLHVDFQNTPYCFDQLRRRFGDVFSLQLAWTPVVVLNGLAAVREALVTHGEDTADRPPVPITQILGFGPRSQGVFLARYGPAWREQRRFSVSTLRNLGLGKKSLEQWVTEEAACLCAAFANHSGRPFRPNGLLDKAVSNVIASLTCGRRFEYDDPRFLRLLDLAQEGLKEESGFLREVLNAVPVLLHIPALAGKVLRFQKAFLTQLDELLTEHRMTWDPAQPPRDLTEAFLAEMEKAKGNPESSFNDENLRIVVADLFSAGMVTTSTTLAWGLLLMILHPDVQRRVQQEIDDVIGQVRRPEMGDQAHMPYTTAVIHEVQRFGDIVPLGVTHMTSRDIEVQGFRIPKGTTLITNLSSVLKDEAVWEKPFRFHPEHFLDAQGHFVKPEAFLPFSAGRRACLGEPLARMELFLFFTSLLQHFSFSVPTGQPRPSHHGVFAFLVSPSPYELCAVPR

SMILES	inhibition at 30 min, 10 μM [1] [%]	inhibition at 45 min, 10 μM [5] [%]	inhibition at 15 min, 10 μM [6] [%]	inhibition at 30 min, 10 μM [7] [%]	Metabolic stability (HLM, % recovery after 15') [2] [%]	Cyp450 inhibition: CDNA-CYP3A4-BFC (% inhibition) [8] [%]	Antiviral activity IIIB (pEC50) [3, 14]	Cyp450 inhibition: CDNA-CYP2C19-CEC (% inhibition) [10] [%]	Cyp450 inhibition: CDNA-CYP3A4-BQ (% inhibition) [11] [%]	Cyp450 inhibition: CDNA-CYP2C9-MFC (% inhibition) [7] [%]	inhibition at 30 min, 10 μM ([8]; human, E. coli expressed CYP3A4, pH 7.4, probe BFC 150 μM) [%]	EC50 ([3]; Human immunodeficiency virus 1, IIIB, 72 h) [µM]	inhibition at 30 min, 10 μM ([11]; human, E. coli expressed CYP3A4, pH 7.4, probe BQ 60 μM) [%]	inhibition at 10 min, 10 μM [12] [%]	recovery at 15 min, 5 μM [2] [%]	EC50 [3, 13] [µM]	CC50 [4] [µM]	Toxicity MT4 (pCC50) [9]	CC50 at 3 days [4] [µM]
CCN(C)c1nc2ccc(C(=O)N(CC(C)C)C[C@@H](O)[C@H](Cc3ccc(F)cc3)NC(=O)OCc3cncs3)cc2o1 [Compound C53, Thiazol-5-ylmethyl (2S,3R)-4-(2-(ethyl(methyl)amino)-N-isobutylbenzo[d]-oxazole-6-carboxamido)-1-(4-fluorophenyl)-3-hydroxybutan-2-ylcarbamate]	95	61	0	96	–	–	–	–	–	–	–	–	–	–	71	46.8	50.1	–	–
CCc1nc2ccc(C(=O)N(CC(C)C)C[C@@H](O)[C@H](Cc3ccccc3)NC(=O)OCc3cncs3)cc2o1 [Compound C39, Thiazol-5-ylmethyl (2S,3R)-4-(2-ethyl-N-isobutylbenzo[d]oxazole-6-carboxamido)-3-hydroxy-1-phenylbutan-2-ylcarbamate]	87	51	2	95	–	–	–	–	–	–	95	87.1	77	92	–	–	–	–	> 100
O=C(N[C@@H](Cc1ccccc1)[C@H](O)CN(CCN1CCOCC1)C(=O)c1ccc2nc(N3CCCC3)oc2c1)OCc1cncs1 [Compound C20]	–	–	–	–	65	96	<4.00	65	81	72	–	–	–	–	–	–	–	<4.00	–
CN(C)CCN(C[C@@H](O)[C@H](Cc1ccccc1)NC(=O)OCc1cncs1)C(=O)c1ccc2nc(N3CCCC3)oc2c1 [Compound C17]	–	–	–	–	55	95	<4.00	46	79	34	–	–	–	–	–	–	–	<4.00	–
CCN(C)c1nc2ccc(C(=O)N(CC3CCCCC3)C[C@@H](O)[C@H](Cc3ccccc3)NC(=O)OCc3cncs3)cc2o1 [Compound C32, Thiazol-5-ylmethyl (2S,3R)-4-(N-(cyclohexylmethyl)-2-(ethyl(methyl)-amino)benzo[d]oxazole-6-carboxamido)-3-hydroxy-1-phenylbutan-2-yl-carbamate]	100	87	27	98	–	–	–	–	–	–	–	–	–	–	54	20.9	–	–	21.4
CC(C)(C)CN(C[C@@H](O)[C@H](Cc1ccccc1)NC(=O)OCc1cncs1)C(=O)c1ccc2nc(N3CCCC3)oc2c1 [Compound C37]	–	–	–	–	71	97	=4.35	92	79	96	–	–	–	–	–	–	–	=4.31	–
CC(C)(O)CN(C[C@@H](O)[C@H](Cc1ccccc1)NC(=O)OCc1cncs1)C(=O)c1ccc2nc(N3CCCC3)oc2c1 [Compound C28]	–	–	–	–	72	98	<4.00	83	79	99	–	–	–	–	–	–	–	<4.00	–

Continued, in another order:

inhibition at 30 min, 10 μM [1] [%]	inhibition at 45 min, 10 μM [5] [%]	inhibition at 15 min, 10 μM [6] [%]	inhibition at 30 min, 10 μM [7] [%]	Metabolic stability (HLM, % recovery after 15') [2] [%]	Cyp450 inhibition: CDNA-CYP3A4-BFC (% inhibition) [8] [%]	Antiviral activity IIIB (pEC50) [3, 14]	Cyp450 inhibition: CDNA-CYP2C19-CEC (% inhibition) [10] [%]	Cyp450 inhibition: CDNA-CYP3A4-BQ (% inhibition) [11] [%]	Cyp450 inhibition: CDNA-CYP2C9-MFC (% inhibition) [7] [%]	inhibition at 30 min, 10 μM ([8]; human, E. coli expressed CYP3A4, pH 7.4, probe BFC 150 μM) [%]	EC50 ([3]; Human immunodeficiency virus 1, IIIB, 72 h) [µM]	inhibition at 30 min, 10 μM ([11]; human, E. coli expressed CYP3A4, pH 7.4, probe BQ 60 μM) [%]	inhibition at 10 min, 10 μM [12] [%]	SMILES	recovery at 15 min, 5 μM [2] [%]	EC50 [3, 13] [µM]	CC50 [4] [µM]	Toxicity MT4 (pCC50) [9]	CC50 at 3 days [4] [µM]
–	–	–	–	71	96	<4.00	90	81	100	–	–	–	–	CN(C[C@@H](O)[C@H](Cc1ccccc1)NC(=O)OCc1cncs1)C(=O)c1ccc2nc(N3CCCC3)oc2c1 [Compound C21]	–	–	–	<4.00	–
–	–	–	–	81	91	=4.24	46	76	42	–	–	–	–	O=C(N[C@@H](Cc1ccccc1)[C@H](O)CN(CCN1CCCC1)C(=O)c1ccc2nc(N3CCCC3)oc2c1)OCc1cncs1 [Compound C13]	–	–	–	<4.00	–
–	–	–	–	78	–	<4.00	92	–	–	–	–	–	–	CC(C)CN(C[C@@H](O)[C@H](Cc1ccccc1)NC(=O)OCc1cncs1)C(=O)c1ccc2nc(N3CCCC3)oc2c1 [Compound C2]	–	–	–	<4.00	–
–	–	–	–	78	95	=4.53	96	85	98	–	–	–	–	O=C(N[C@@H](Cc1ccccc1)[C@H](O)CN(CC1CCC(F)(F)CC1)C(=O)c1ccc2nc(N3CCCC3)oc2c1)OCc1cncs1 [Compound C47]	–	–	–	=4.38	–
